Measured values from US20070082327A1, “Cellular phenotype” (Cytokinetics, Inc. A Delaware Corporation, priority 2005, published 2007).

Experiments:
[1] = tested on: SKOV3 cells; test: time-lapse tracking of cell fate, GFP-Histone 2B SKOV3 cells; type: cell-based; details: SKOV3, 20 random cells tracked, 0.5 μM Taxol, FIG. 3a
Protocol: FIG. 3a is a bar graph showing the percentages of 20 random cells tracked to assess their fate: complete mitosis, death from mitosis, decondensation (uncertain fate) and death from decondensation.
The data used to construct the chart was obtained by time-lapse movies of cells marked with GFP-Histone 2B. Movies were collected on cell populations treated with two different mp2 stimulus compounds at various concentrations, as well as on DMSO-treated (control) cells, cells treated with 0.5 μM Taxol, and cells treated with compounds that produce a rice phenotype. […] It is believed that most of these cells would eventually die.

[2] = tested on: 60 cancer cell lines; details: NCI 60 cell line data; cited from earlier work

SMILES: CC(=O)O[C@H]1C(=O)[C@@]2(C)[C@H]([C@H](OC(=O)c3ccccc3)[C@]3(O)C[C@H](OC(=O)[C@H](O)[C@@H](NC(=O)c4ccccc4)c4ccccc4)C(C)=C1C3(C)C)[C@]1(OC(C)=O)CO[C@@H]1C[C@@H]2O [Taxol, paclitaxel]
- cell fate after treatment [1]: the highest number of cells die directly from mitosis
- potency differences between cell types [2]: over 3 orders of magnitude
